Test results published in patent publication US7932262B2 (Novartis AG, priority 2006, dated 2011).
Where two headings read alike, the source gives them in different places.

Columns and labels:
A2780 cells = experiment: Cell Proliferation Assay (Cell Titer Glo), A2780; format: cell-based; conditions: Homo sapiens, read-out: CPEC50 A2780
Method: IV. Cell Proliferation Assay Protocol:
A2780, PC-3, or PC3MM cells were seeded at 1000 cells/well in 100 μL/well (10.000 cells/mL) growth media in 96-well plates. Cells were allowed to adhere to the bottom of plates for 3-5 hours in a 37° C. 5% CO2 incubator. Compounds were dissolved in DMSO and then transferred to the cell plates. The cells were incubated with the compounds for 3 days in a 37° C. 5% CO2 incubator. The growth medium containing the compounds was then removed from the cells and fresh medium was added, followed by 100 μL of Cell Titer Glo assay reagent (Promega). This mixture was shaken for 1 minute and then incubated without shaking for 10 minutes. Activity determinations for the compounds were made by detection on a Trilux Instrument.

PDK1 kinase = biological target: T1, PDK1 kinase (Homo sapiens, UniProt O15530); experiment: PDK1 Kinase Alpha Screen Assay; format: biochemical; conditions: read-out: PDK1 IC50
T1 sequence (O15530 1-556): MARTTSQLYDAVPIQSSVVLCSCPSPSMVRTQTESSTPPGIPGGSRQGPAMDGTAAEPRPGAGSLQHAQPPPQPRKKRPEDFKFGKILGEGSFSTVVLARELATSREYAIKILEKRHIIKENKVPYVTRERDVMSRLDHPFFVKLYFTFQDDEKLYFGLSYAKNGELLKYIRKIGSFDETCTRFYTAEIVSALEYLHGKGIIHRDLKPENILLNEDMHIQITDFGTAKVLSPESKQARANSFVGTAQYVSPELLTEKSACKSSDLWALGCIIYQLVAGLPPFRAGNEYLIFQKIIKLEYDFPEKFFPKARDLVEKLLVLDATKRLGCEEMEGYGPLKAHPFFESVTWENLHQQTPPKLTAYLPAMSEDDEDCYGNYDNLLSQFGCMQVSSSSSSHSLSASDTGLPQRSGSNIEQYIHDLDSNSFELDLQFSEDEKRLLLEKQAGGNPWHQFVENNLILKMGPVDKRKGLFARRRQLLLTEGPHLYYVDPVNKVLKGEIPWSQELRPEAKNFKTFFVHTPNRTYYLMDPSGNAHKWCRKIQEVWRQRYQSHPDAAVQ
In short: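 Compound in DMSO added to PDK1-4 peptide; PDK1/ATP mix starts reaction (final 50 nM peptide, 10 uM ATP). Runs 3-18 hours, stopped with 90 mM EDTA buffer. Antibody/bead mix added, developed overnight at room temperature, then AlphaScreen signal read.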

[1] = 72 h, A2780 cells, 3 days incubation
[2] = cell proliferation, A2780 cells
[3] = Cell Proliferation Assay, A2780

NS(=O)(=O)c1ccc(Nc2ncc3cccc(OC4CNC4)c3n2)cc1 [Compound 48, 4-[8-(Azetidin-3-yloxy)-quinazolin-2-ylamino]-benzenesulfonamide]
EC50 (A2780 cells; [1]): 5 to 10 µM | IC50 (PDK1 kinase): < 5 µM

NS(=O)(=O)c1ccc(Nc2ncc3ccc(-c4cccnc4)c(OC4CCNCC4)c3n2)cc1 [Compound 853, 4-(8-(piperidin-4-yloxy)-7-(pyridin-3-yl)quinazolin-2-ylamino)benzenesulfonamide]
EC50 (A2780 cells; [2]): < 5 µM | IC50 (PDK1 kinase; PDK1 Kinase Alpha Screen Assay): < 5 µM

NC(=O)c1ccc(-c2cccc3cnc(Nc4ccc(S(N)(=O)=O)cc4)nc23)cc1 [Compound 96, 4-[2-(4-Sulfamoyl-phenylamino)-quinazolin-8-yl]-benzamide]
EC50 (A2780 cells; [1]): < 5 µM | IC50 (PDK1 kinase): < 5 µM

CC(C)N1CC(Oc2cccc3cnc(Nc4ccc(S(N)(=O)=O)cc4)nc23)C1 [Compound 47, 4-[8-(1-Isopropyl-azetidin-3-yloxy)-quinazolin-2-ylamino]-benzenesulfonamide]
EC50 (A2780 cells; [1]): < 5 µM | IC50 (PDK1 kinase): < 5 µM

CS(=O)(=O)c1cccc(-c2cccc3cnc(Nc4ccc(S(N)(=O)=O)cc4)nc23)c1 [Compound 91, 4-[8-(3-Methanesulfonyl-phenyl)-quinazolin-2-ylamino]-benzenesulfonamide]
EC50 (A2780 cells; [1]): < 5 µM | IC50 (PDK1 kinase): < 5 µM

CC(C)NCc1cccc2cnc(Nc3ccc(S(N)(=O)=O)cc3)nc12 [Compound 897, 4-(8-((isopropylamino)methyl)quinazolin-2-ylamino)benzenesulfonamide]
EC50 (A2780 cells; [2]): < 5 µM | IC50 (PDK1 kinase; PDK1 Kinase Alpha Screen Assay): < 5 µM

NC(=O)c1ccc(Nc2ncc3cccc(OC4CCCC4)c3n2)cc1 [Compound 505, 4-(8-(cyclopentyloxy)quinazolin-2-ylamino)benzamide]
EC50 (A2780 cells; [3]): < 5 µM | IC50 (PDK1 kinase; PDK1 Kinase Alpha Screen Assay): < 5 µM

NS(=O)(=O)c1ccc(Nc2ncc3cccc(Nc4ccc(F)cc4)c3n2)cc1 [Compound 873, 4-(8-(4-fluorophenylamino)quinazolin-2-ylamino)benzenesulfonamide]
EC50 (A2780 cells; [2]): < 5 µM | IC50 (PDK1 kinase; PDK1 Kinase Alpha Screen Assay): < 5 µM

NS(=O)(=O)c1ccc(Nc2ncc3cccc(C(=O)N4CCOCC4)c3n2)cc1 [Compound 120, 4-[8-(Morpholine-4-carbonyl)-quinazolin-2-ylamino]-benzenesulfonamide]
EC50 (A2780 cells; [1]): 5 to 10 µM | IC50 (PDK1 kinase): 5 to 10 µM

Nc1ccc2cnc(Nc3ccc(S(N)(=O)=O)cc3)nc2c1 [Compound 315, 4-(7-aminoquinazolin-2-ylamino]-benzenesulfonamide]
EC50 (A2780 cells; [3]): < 5 µM | IC50 (PDK1 kinase; PDK1 Kinase Alpha Screen Assay): < 5 µM

CNC(=O)c1ccc(Nc2ncc3cccc(OC(C)C)c3n2)cc1 [Compound 515, 4-(8-isopropoxyquinazolin-2-ylamino)-N-methylbenzamide]
EC50 (A2780 cells; [3]): < 5 µM | IC50 (PDK1 kinase; PDK1 Kinase Alpha Screen Assay): < 5 µM

Cc1cc(S(N)(=O)=O)ccc1Nc1ncc2cccc(OC(C)C)c2n1 [Compound 562, 4-(8-isopropoxyquinazolin-2-ylamino)-3-methylbenzenesulfonamide]
EC50 (A2780 cells; [3]): < 5 µM | IC50 (PDK1 kinase; PDK1 Kinase Alpha Screen Assay): 10 to 25 µM

NC(=O)c1ccc(-c2ccc3cnc(Nc4ccc(S(N)(=O)=O)cc4)nc3c2OC2CCNCC2)cc1 [Compound 19, 4-[8-(Piperidin-4-yl-oxy)-2-(4-sulfamoyl-phenylamino)-quinazolin-7-yl]-benzamide]
EC50 (A2780 cells; [1]): 5 to 10 µM | IC50 (PDK1 kinase): < 5 µM

NS(=O)(=O)c1ccc(Nc2ncc3cccc(-c4cn[nH]c4)c3n2)cc1 [Compound 104, 4-[8-(1H-Pyrazol-4-yl)-quinazolin-2-ylamino]-benzenesulfonamide]
EC50 (A2780 cells; [1]): < 5 µM | IC50 (PDK1 kinase): < 5 µM

CN(C)CCOc1cccc2cnc(Nc3ccc(C(N)=O)cc3)nc12 [Compound 504, 4-(8-(2-(dimethylamino)ethoxy)quinazolin-2-ylamino)benzamide]
EC50 (A2780 cells; [3]): < 5 µM | IC50 (PDK1 kinase; PDK1 Kinase Alpha Screen Assay): < 5 µM

NS(=O)(=O)c1ccc(Nc2ncc3ccc(-c4ccc5c(c4)CCNC5=O)c(OC4CCNCC4)c3n2)cc1 [Compound 875, 4-(7-(1-oxo-1,2,3,4-tetrahydroisoquinolin-6-yl)-8-(piperidin-4-yloxy)quinazolin-2-ylamino)benzenesulfonamide]
EC50 (A2780 cells; [2]): 5 to 10 µM | IC50 (PDK1 kinase; PDK1 Kinase Alpha Screen Assay): < 5 µM

N#Cc1ccc(Oc2cccc3cnc(Nc4ccc(S(N)(=O)=O)cc4)nc23)cc1 [Compound 409, 4-(8-(4-cyanophenoxy)quinazolin-2-ylamino)benzenesulfonamide]
EC50 (A2780 cells; [3]): 5 to 10 µM | IC50 (PDK1 kinase; PDK1 Kinase Alpha Screen Assay): < 5 µM

NS(=O)(=O)c1ccc(Nc2ncc3cccc(C(=O)NC4CCCNC4)c3n2)cc1 (stereo not drawn) [Compound 140, 2-(4-Sulfamoyl-phenylamino)-quinazoline-8-carboxylic acid piperidin-3-ylamide]
EC50 (A2780 cells; [1]): 5 to 10 µM | IC50 (PDK1 kinase): < 5 µM

CN(C)[C@H]1CCN(C(=O)c2cccc3cnc(Nc4ccc(S(N)(=O)=O)cc4)nc23)C1 [Compound 143, 4-[8-((S)-3-Dimethylamino-pyrrolidine-1-carbonyl)-quinazolin-2-ylamino]-benzenesulfonamide]
EC50 (A2780 cells; [1]): 5 to 10 µM | IC50 (PDK1 kinase): < 5 µM

c1cc(OC2CCCC2)c2nc(NC3CC3)ncc2c1 [Compound 728, 8-(cyclopentyloxy)-N-cyclopropylquinazolin-2-amine]
EC50 (A2780 cells; [2]): 5 to 10 µM

COc1cccc(COc2cccc3cnc(Nc4ccc(S(N)(=O)=O)cc4)nc23)c1 [Compound 719, 4-(8-(3-methoxybenzyloxy)quinazolin-2-ylamino)benzenesulfonamide]
EC50 (A2780 cells; [2]): < 5 µM

COc1ncccc1-c1ccc2cnc(Nc3ccc(S(N)(=O)=O)cc3)nc2c1 [Compound 314, 4-(7-(2-methoxypyridin-3-yl)quinazolin-2-ylamino)benzenesulfonamide]
EC50 (A2780 cells; [3]): 5 to 10 µM

CC(C)Oc1cccc2cnc(NC3CCN(C)CC3)nc12 [Compound 557, 8-isopropoxy-N-(1-methylpiperidin-4-yl)quinazolin-2-amine]
EC50 (A2780 cells; [3]): 5 to 10 µM

Fc1ccc(F)c(CNc2ncc3cccc(OC4CCCC4)c3n2)c1 [Compound 729, 8-(cyclopentyloxy)-N-(2,5-difluorobenzyl)quinazolin-2-amine]
EC50 (A2780 cells; [2]): 5 to 10 µM

Oc1cccc2cnc(NCc3cc(F)ccc3F)nc12 [Compound 730, 2-(2,5-difluorobenzylamino)quinazolin-8-ol]
EC50 (A2780 cells; [2]): < 5 µM

NS(=O)(=O)c1ccc(Nc2ncc3cccc(OCc4ccc5nonc5c4)c3n2)cc1 [Compound 720, 4-(8-(benzo[c][1,2,5]oxadiazol-5-ylmethoxy)quinazolin-2-ylamino)benzenesulfonamide]
EC50 (A2780 cells; [2]): 5 to 10 µM

CNC(=O)c1cccc2cnc(Nc3ccc(S(N)(=O)=O)cc3)nc12 [Compound 623, N-methyl-2-(4-sulfamoylphenylamino)quinazoline-8-carboxamide]
EC50 (A2780 cells; [3]): < 5 µM

CC(C)Oc1cccc2cnc(NCc3ccc(S(N)(=O)=O)cc3)nc12 [Compound 558, 4-((8-isopropoxyquinazolin-2-ylamino)methyl)benzenesulfonamide]
EC50 (A2780 cells; [3]): 5 to 10 µM

NS(=O)(=O)c1ccc(Nc2ncc3cc(F)cc(-c4ccc(F)nc4)c3n2)cc1 [Compound 633, 4-(6-fluoro-8-(6-fluoropyridin-3-yl)quinazolin-2-ylamino)benzenesulfonamide]
EC50 (A2780 cells; [3]): 5 to 10 µM

CS(=O)(=O)CCNC(=O)c1cccc2cnc(Nc3ccc(S(N)(=O)=O)cc3)nc12 [Compound 627, N-(2-(methylsulfonyl)ethyl)-2-(4-sulfamoylphenylamino)quinazoline-8-carboxamide]
EC50 (A2780 cells; [3]): 5 to 10 µM

CC(C)Oc1cccc2cnc(Nc3cccnc3)nc12 [Compound 522, 8-isopropoxy-N-(pyridin-3-yl)quinazolin-2-amine]
EC50 (A2780 cells; [3]): 5 to 10 µM

CC(=O)NCCNC(=O)c1cccc2cnc(Nc3ccc(S(N)(=O)=O)cc3)nc12 [Compound 626, N-(2-acetamidoethyl)-2-(4-sulfamoylphenylamino)quinazoline-8-carboxamide]
EC50 (A2780 cells; [3]): 5 to 10 µM

COc1cc(-c2ccc3cnc(Nc4ccc(S(N)(=O)=O)cc4)nc3c2)ccn1 [Compound 560, 4-(7-(2-methoxypyridin-4-yl)quinazolin-2-ylamino)benzenesulfonamide]
EC50 (A2780 cells; [3]): 5 to 10 µM

CC(C)(C)OC(=O)N1CCC(Oc2c(Br)ccc3cnc(Nc4ccc(S(N)(=O)=O)cc4)nc23)CC1 [Compound 420, tert-butyl 4-(7-bromo-2-(4-sulfamoylphenylamino)quinazolin-8-yloxy)piperidine-1-carboxylate]
EC50 (A2780 cells; [3]): < 5 µM

NS(=O)(=O)c1ccc(Nc2ncc3ccc(-c4ccc5c(c4)OCO5)cc3n2)cc1 [Compound 791, 4-(7-(benzo[d][1,3]dioxol-5-yl)quinazolin-2-ylamino)benzenesulfonamide]
EC50 (A2780 cells; [2]): 5 to 10 µM
